US20070093465A1, “Cephem compound” (priority 2003, published 2007)
Converted amounts (≈) assume the structure as drawn.

How the values were obtained:
Assay in all cases: Bioactivity: growth inhibition / minimal inhibitory concentration in liquid culture
Format in all cases: cell-based
[1] = test system: Micrococcus luteus DSM 348; details: DSM348, 48 h, M. luteus DSM 348, liquid 2x TY, microtiterplates incubated 2 days at 25 degrees Celsius, 550 rpm
Excerpt: (§1) The adipoyl-7-amino-3-carbamoyloxymethyl-3-cephem-4-carboxylic acid prepared according to Example 3 was used to evaluate its activity versus different bacteria. Bacteria used were: Escherichia coli ESS [xxxref komt nogxx], Micrococcus luteus DSM 348 [Andrade, A. C., Van Nistelrooy, J. G. M., Peery, R. B., Skatrud, P. L., De Waard, M. A., 2000, The role of ABC transporters from Aspergillus nidulans in protection against cytotoxic agents and in antibiotic production] and Bacillus subtilis ATCC 6633 [xxxref komt nogxx] The bacteria were grown overnight in liquid 2× TY [xxxref komt nogxx] at 37 degrees and 280 rotations per minute and subsequently diluted 1000-fold in fresh medium. Two ml deep-well microtiterplates were inoculated with 1 ml of the diluted bacterial cultures and different concentrations of adipoyl-7-amino-3-carbamoyloxymethyl-3-cephem-4-carboxylic acid (adipoyl-ACCA or Ad-ACCA) were added to individual wells wells. As control several other active and less-active b-lactams were used: 6-APA, Adipoyl-6-APA, 7-ADCA, adipoyl-7-ADCA, 7-ACA, cephalosporinC and cefuroxime. The microtiterplates were incubated for 2 days at 25 degrees Celsius and 550 rotations per minute.
(§2) The results for growth inhibition by adipoyl-7-ADCA, adipoyl-ACCA and cefuroxime are summarized in FIGS. 14 (B. subtilis), 15 (E. coli) and 16 (M. luteus).
(§3) The minimal inhibitory concentrations of adipoyl-7-amino-3-carbamoyloxymethyl-3-cephem-4-carboxylic acid for B. subtilis ATCC 6633, E. coli ESS and M. luteus DSM 348 were 4, 7 and 7 uM, respectively.

[2] = test system: Escherichia coli ESS; details: 48 h, E. coli ESS, liquid 2x TY, microtiterplates incubated 2 days at 25 degrees Celsius, 550 rpm
Excerpt: as §1, §2, §3

[3] = test system: Bacillus subtilis ATCC 6633; details: ATCC6633, 48 h, B. subtilis ATCC 6633, liquid 2x TY, microtiterplates incubated 2 days at 25 degrees Celsius, 550 rpm
Excerpt: as §1, §2, §3

For NC(=O)OCC1=C(C(=O)O)N2C(=O)[C@@H](NC(=O)CCCCC(=O)O)[C@H]2SC1 [adipoyl-7-amino-3-carbamoyloxymethyl-3-cephem-4-carboxylic acid], which MIC [1] is on record?
Its MIC is 7 µM (≈ 2.81 µg/mL).

What about the MIC [2] of the same compound?
The MIC was 7 µM (≈ 2.81 µg/mL).

And the MIC [3]?
The MIC was 4 µM (≈ 1.61 µg/mL).
